Data: patent US4009206A, “N-(substituted phenyl and benzyl)abietamides” (priority 1974, dated 1977)

Test system: cholesterol in blood
Assay: Reduction of blood cholesterol in rats fed a 1% cholesterol / 0.25% sodium cholate diet
Type: in vivo, male rats
Settings: 3 days, control (cholesterol-administered) group = 0, normal group = 100, * 5%, ** 1% significance
Experimental: A completely synthetic diet containing 1% of cholesterol, 0.25% of sodium cholate and 0.0003%, 0.003%, and 0.03% of the test compound is given to a group of 6 male rats having a body weight of about 50 g consecutively for 3 days, and the rats are fasted overnight. Then, the rats are decapitated and blood is collected to determine the cholesterol concentration in blood. The concentration of cholesterol in blood is measured with Technicon Autoanalyzer(Technicon Laboratory: Method File N-24a) Obtained results are shown in Table 1.
Each value shown in the Table is a relative value determined based on the supposition that the value of the control group (the cholesterol-administered group) is 0 and the value of the normal group (the non-cholesterol-administered group) is 100.

Compound	% Inhibition (cholesterol in blood) (Dose in Diet 0.003%) [%]	% Inhibition (cholesterol in blood) (Dose in Diet 0.03%) [%]	% Inhibition (cholesterol in blood) (Dose in Diet 0.0003%) [%]
CC(C)C1CCC2=C(CCC3C(C)(C(=O)NCc4ccc(Cl)cc4)CCCC23C)C1 (centres unmarked) [N-(4-chlorobenzyl)-Δ^8-dihydroabietamide]	9	30	
Cc1cccc(C)c1NC(=O)C1(C)CCCC2(C)C3=C(CCC12)CC(C(C)C)CC3 (centres unmarked) [N-(2,6-dimethylphenyl)-Δ^8-dihydroabietamide]	76	102	33
N-(m-bromophenyl)-dihydroabietamide	23	60	7
